Measurements as given in patent publication US20060165672A1, “Fatigue reducing agent” (KANEKA CORPORATION, priority 2003, published 2006).

Key:
[1] = Level of reduced coenzyme Q in the muscle after oral administration (HPLC, electrochemical detector); format: in vivo, male SD rats; conditions: for Intramuscular level of reduced coenzyme Q (in words): after administration
Procedure: (§1) Reduced coenzyme Q10 obtained in the Reference Example 1 (containing about 1% of oxidized coenzyme Q10) was dissolved in soybean oil solution (reduced coenzyme Q10/soybean oil solution=20 mg/ml) and orally administered to male SD rats (6 weeks of age) at a dose of 100 mg/kg of reduced coenzyme Q10 (containing about 1% of oxidized coenzyme Q10), once a day for 5 days. Five days later, the muscles of the femoral region were collected, and coenzyme Q level in the muscle was measured. The measurement of the coenzyme Q level in the muscle was performed using HPLC. The harvested rat muscle (0.2 g) was homogenized after the addition of coenzyme Q7 (0.003 mg), ethanol (1 ml), distilled water (1 ml) and ferric chloride (0.01%), and then hexane (3 ml) was added. Coenzyme Q10 was extracted from the homogenate after shaking. After repeating this extraction operation twice, the extract was brought to dryness by evaporating hexane out, re-dissolved in 0.25 ml ethanol and injected to HPLC. HPLC condition is as follows; column: YMC-Pack (ODS-A303), detection wavelength: 275 nm, mobile phase: methanol (88%), hexane (12%), flow rate: 1 ml/min. The measurement of the ratio of reduced coenzyme Q10 and oxidized coenzyme Q10 in the muscle was carried out as follows. The harvested rat muscle (0.2 g) was homogenized after the addition of distilled water (0.2 ml) and ethanol (0.8 ml), and the homogenate was extracted by adding hexane (1.2 ml). After evaporating hexane under a stream of nitrogen, the extract was re-dissolved in ethanol (0.2 ml) and injected to HPLC. The condition of the HPLC operation was the same as the above except that the electrochemical detector was used. Soybean oil was administered to the control group.
The level of reduced coenzyme Q in the muscle was measured after administration of reduced coenzyme Q10 in a manner similar to (Example 1).
The level of reduced coenzyme Q in the muscle was measured after administration of oxidized coenzyme Q10 in a manner similar to (Comparative Example 1).

[2] = test system: male SD rats (61 to 63 weeks of age); test: Tread mill test in aged rats (maximum running time, crossover); format: in vivo, rat; conditions: for Maximum running time of aged rats (in words) / Maximum Running Time, Time prolonged / Maximum Running Time, After administration, relative to solvent control (100): 300 mg/kg oral; for Maximum Running Time, Time prolonged: after minus before administration; for Maximum Running Time, After administration, relative to solvent control (100) / Maximum Running Time, Before administration, relative to solvent control (100): value in parentheses; for Maximum Running Time, After administration: after 300 mg/kg oral dose; for Maximum Running Time, After administration / Maximum Running Time, Before administration: crossover; for Maximum Running Time, Before administration: baseline before 300 mg/kg oral dose
Procedure: (§2) The anti-fatigue effect of reduced coenzyme Q10 (note that it contained about 1% of oxidized coenzyme Q10) was evaluated in male SD rats (7 weeks of age, n=10) using a tread mill. A rat was forced to run at a speed of 10 m/min on the tread mill machine (Type NK-73-4, Natsume Seisakusho Co., Ltd.). Then the speed was increased stepwise by 5 m/min in every 3 min, and the time when the rat could no longer run was measured (the maximum running time). The soybean oil solution of reduced coenzyme Q10 according to the Reference Example 1 (reduced coenzyme Q10/soybean oil solution=20 mg/ml) was prepared as a test substance and orally administered to rats as reduced coenzyme Q10 (note that it contained about 1% of oxidized coenzyme Q10) with a dose of 300 mg/kg. The maximum running times were measured before administration and 2 hours after administration and a prolongation of the maximum running time was calculated. Soybean oil was administered to the control group.
The anti-fatigue effect of reduced coenzyme Q10 (containing about 1% of oxidized coenzyme Q10) was evaluated in male SD rats (61 to 63 weeks of age, n=7) in a manner similar to (Example 3). This experiment was performed using a crossover method. […]

[3] = test system: male SD rats (7 weeks of age); test: Tread mill test in young rats (maximum running time); format: in vivo, rat; conditions: for Maximum Running Time, Time prolonged: after minus before administration; for Maximum Running Time, After administration, relative to solvent control (100) / Maximum Running Time, Time prolonged, relative to solvent control (100) / Maximum Running Time, Before administration, relative to solvent control (100): value in parentheses; for Maximum Running Time, After administration: 2 hours after 300 mg/kg oral dose; for Maximum Running Time, Before administration: baseline before 300 mg/kg oral dose
Procedure: as §2
The anti-fatigue effect of oxidized coenzyme Q10 was evaluated in young rats in a manner similar to (Example 3).

[4] = Coenzyme Q level in the muscle after oral administration for 5 days (HPLC); format: in vivo, male SD rats
Procedure: as §1
Similarly oxidized coenzyme Q10 was administered and then the coenzyme Q level in the muscle was measured.

[5] = compared with oxidized coenzyme Q10, Japanese Patent Laid-Open No. 10-109933; cited from earlier work
[6] = femoral muscle, 100 mg/kg orally once a day for 5 days
[7] = value in parentheses, control group = 100
[8] = femoral muscle, 100 mg/kg orally once a day for 5 days, rats 6 weeks of age
[9] = value in parentheses, control group = 100, 100 mg/kg orally, 5 days

Structure (SMILES)	Intramuscular level of reduced coenzyme Q (in words) [1]	Level of Reduced Coenzyme Q in Muscle, Q9 [1, 6]	Level of Reduced Coenzyme Q in Muscle, Total CoQ [1, 6]	Level of Reduced Coenzyme Q in Muscle, Q9, relative to control group (100) [1, 7]	Level of Reduced Coenzyme Q in Muscle, Total CoQ, relative to control group (100) [1, 7]	Maximum running time of aged rats (in words) [2]	Maximum Running Time, Time prolonged [2]	Maximum Running Time, After administration, relative to solvent control (100) [2]	Maximum Running Time, After administration [2]	Maximum Running Time, Before administration [2]	Maximum Running Time, Before administration, relative to solvent control (100) [2]	Maximum Running Time, Time prolonged ([3]; 300 mg/kg oral)	Maximum Running Time, After administration, relative to solvent control (100) ([3]; 300 mg/kg oral)	Maximum Running Time, Time prolonged, relative to solvent control (100) ([3]; 300 mg/kg oral)	Maximum Running Time, After administration [3]	Maximum Running Time, Before administration [3]	Maximum Running Time, Before administration, relative to solvent control (100) [3]	Level of Coenzyme Q in Muscle, Q9 [4, 8]	Level of Coenzyme Q in Muscle, Total CoQ [4, 8]	Level of Coenzyme Q in Muscle, Q9, relative to control group (100) [4, 9]	further results
COC1=C(OC)C(=O)C(C/C=C(\C)CC/C=C(\C)CC/C=C(\C)CC/C=C(\C)CC/C=C(\C)CC/C=C(\C)CC/C=C(\C)CC/C=C(\C)CC/C=C(\C)CCC=C(C)C)=C(C)C1=O [Oxidized Coenzyme Q10, oxidized coenzyme Q10, reference compound]	decreased	2.34 ± 0.42 µg/g	2.45 ± 0.44 µg/g	(71*)	(68*)	no prolongation effect	14 ± 43 s	(105)	875 ± 108 s	861 ± 123 s	(100)	190 ± 76 s	(108**)	(339**)	1733 ± 107 s	1543 ± 99 s	(100)	12.84 ± 2.03 µg/g	14.18 ± 2.18 µg/g	(133)	Level of Reduced Coenzyme Q in Muscle, Q10, relative to control group (100) ([1]; rat, in vivo): (34**); Anti-fatigue effect in young rats (in words, compared with reduced coenzyme Q10) ([3]; 300 mg/kg oral): about the same as that of reduced coenzyme Q10; Level of Coenzyme Q in Muscle, Total CoQ, relative to control group (100) [4, 9]: (137)
COc1c(O)c(C)c(C/C=C(\C)CC/C=C(\C)CC/C=C(\C)CC/C=C(\C)CC/C=C(\C)CC/C=C(\C)CC/C=C(\C)CC/C=C(\C)CC/C=C(\C)CCC=C(C)C)c(O)c1OC [Reduced Coenzyme Q10, reduced coenzyme Q10]	increased	5.32 ± 1.07 µg/g	5.71 ± 1.16 µg/g	(162*)	(159*)	significantly prolonged	97 ± 28 s	(115)	958 ± 52 s	861 ± 123 s	(100)	196 ± 127 s	(108*)	(349**)	1719 ± 160 s	1523 ± 97 s	(99)	15.82 ± 2.89 µg/g	17.39 ± 3.09 µg/g	(164*)	Level of Reduced Coenzyme Q in Muscle, Q10 [1, 6]: 0.39 ± 0.24 µg/g; Level of Reduced Coenzyme Q in Muscle, Q10, relative to control group (100) [1, 7]: (122); Maximum running time of rats (in words) ([3]; 300 mg/kg oral): significantly prolonged; Endogenous coenzyme Q (in words) ([4]; after administration, endogenous = synthesized in vivo): increase of endogenous coenzyme Q; Level of Coenzyme Q in Muscle, Q10 [4, 8]: 1.57 ± 0.21 µg/g; Level of Coenzyme Q in Muscle, Q10, relative to control group (100) [4, 9]: (215**); Level of Coenzyme Q in Muscle, Total CoQ, relative to control group (100) [4, 9]: (168*); Plasma level of coenzyme Q after oral administration (in words) [5]: raised the plasma level of coenzyme Q more than oral administration of oxidized coenzyme Q10
